Laboratory results from PubChem BioAssay AID1963854 (Molecular Pharmacology Branch, DTP, NCI, 2024).

Test system: 186277-243-T-J2-PDC complex spheroid viability
Assay: Anticancer human tumor 186277-243-T-J2-PDC patient-derived colon adenocarcinoma cell line growth inhibition [POLQ]
Settings: for IC50: curve of first compound; for viability, T/C: stronger effect = lower value
Summary of the method: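 Growth inhibition in 3D: complex spheroids (tumor PDC, HUVEC, MSC) treated with POLQ inhibitor combinations; where Cmax unknown, highest tested concentration 10 microM, except SN-38 at 1 microM.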
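Also: spheroids exposed to compounds for seven days.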
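For viability, T/C in this document: 100% = DMSO vehicle control viability.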

Q: For `Cn1ncnc1[C@H]1c2n[nH]c(=O)c3cc(F)cc(c23)N[C@@H]1c1ccc(F)cc1` + COC1C(OC(N)=O)C(O)C(Oc2ccc3c(O)c(NC(=O)c4ccc(O)c(CC=C(C)C)c4)c(=O)oc3c2C)OC1(C)C, which IC50 (second compound 0.0316 µM) is on record?
A: > 100 nM

Q: And the IC50 (second compound 0.1 µM)?
A: > 100 nM

Q: And the IC50 (second compound 0.316 µM)?
A: > 100 nM

Q: What about the IC50 (second compound 1 µM) of the same molecule?
A: > 100 nM

Q: And the IC50 (second compound 3.16 µM)?
A: > 100 nM

Q: And the IC50 (second compound 10 µM)?
A: > 100 nM

Q: What about the viability, T/C (second compound 0.0316 µM, first compound 0.000316 µM) of the same molecule?
A: 96.7%

Q: What about the viability, T/C (second compound 0.0316 µM, first compound 0.001 µM) of the same molecule?
A: 93%

Q: What about the viability, T/C (second compound 0.0316 µM, first compound 0.00316 µM) of the same molecule?
A: 114%

Q: What about the viability, T/C (second compound 0.0316 µM, first compound 0.01 µM) of the same molecule?
A: 112%

Q: What about the viability, T/C (second compound 0.0316 µM, first compound 0.0316 µM) of the same molecule?
A: 119%

Q: What about the viability, T/C (second compound 0.0316 µM, first compound 0.1 µM) of the same molecule?
A: 105%

Q: What about the viability, T/C (second compound 0.1 µM, first compound 0.000316 µM) of the same molecule?
A: 103%

Q: And the viability, T/C (second compound 0.1 µM, first compound 0.001 µM)?
A: 110%

Q: What about the viability, T/C (second compound 0.1 µM, first compound 0.00316 µM) of the same molecule?
A: 103%

Q: What about the viability, T/C (second compound 0.1 µM, first compound 0.01 µM) of the same molecule?
A: 106%

Q: What about the viability, T/C (second compound 0.1 µM, first compound 0.0316 µM) of the same molecule?
A: 116%

Q: What about the viability, T/C (second compound 0.1 µM, first compound 0.1 µM) of the same molecule?
A: 108%

Q: And the viability, T/C (second compound 0.316 µM, first compound 0.000316 µM)?
A: 101%

Q: And the viability, T/C (second compound 0.316 µM, first compound 0.001 µM)?
A: 111%

Q: What about the viability, T/C (second compound 0.316 µM, first compound 0.00316 µM) of the same molecule?
A: 111%

Q: What about the viability, T/C (second compound 0.316 µM, first compound 0.01 µM) of the same molecule?
A: 105%

Q: And the viability, T/C (second compound 0.316 µM, first compound 0.0316 µM)?
A: 114%

Q: What about the viability, T/C (second compound 0.316 µM, first compound 0.1 µM) of the same molecule?
A: 108%

Q: What about the viability, T/C (second compound 1 µM, first compound 0.000316 µM) of the same molecule?
A: 84.4%

Q: And the viability, T/C (second compound 1 µM, first compound 0.001 µM)?
A: 110%

Q: What about the viability, T/C (second compound 1 µM, first compound 0.00316 µM) of the same molecule?
A: 108%

Q: And the viability, T/C (second compound 1 µM, first compound 0.01 µM)?
A: 98.3%

Q: And the viability, T/C (second compound 1 µM, first compound 0.0316 µM)?
A: 118%

Q: And the viability, T/C (second compound 1 µM, first compound 0.1 µM)?
A: 102%

Q: What about the viability, T/C (second compound 3.16 µM, first compound 0.000316 µM) of the same molecule?
A: 92.4%

Q: And the viability, T/C (second compound 3.16 µM, first compound 0.001 µM)?
A: 106%

Q: What about the viability, T/C (second compound 3.16 µM, first compound 0.00316 µM) of the same molecule?
A: 107%

Q: What about the viability, T/C (second compound 3.16 µM, first compound 0.01 µM) of the same molecule?
A: 117%

Q: What about the viability, T/C (second compound 3.16 µM, first compound 0.0316 µM) of the same molecule?
A: 128%

Q: What about the viability, T/C (second compound 3.16 µM, first compound 0.1 µM) of the same molecule?
A: 100%

Q: And the viability, T/C (second compound 10 µM, first compound 0.000316 µM)?
A: 96.2%

Q: And the viability, T/C (second compound 10 µM, first compound 0.001 µM)?
A: 106%

Q: And the viability, T/C (second compound 10 µM, first compound 0.00316 µM)?
A: 110%

Q: And the viability, T/C (second compound 10 µM, first compound 0.01 µM)?
A: 101%

Q: And the viability, T/C (second compound 10 µM, first compound 0.0316 µM)?
A: 109%

Q: What about the viability, T/C (second compound 10 µM, first compound 0.1 µM) of the same molecule?
A: 104%
